The nature of data set [1]: Solubility of compound in acetonitrile/water. It is filed as physicochemical.
Data set [2] in a line: Stability of compound assessed as compound degradation under dark condition measured after 20 days by 1H-NMR analysis. The class given is physicochemical. The following applies: time 20 day; read-out: Drug degradation.

Regarding `C=CCCCCCCCCOC(=O)/C=C/c1cccc(C(C)(C)C)c1O`, in data set [1], the solubility result is recorded as “Soluble”. For the same compound, the degraded at 480 h in data set [2] was found to be 6%.

The record behind these values is ChEMBL document CHEMBL5131508, “Photoactivatable o-Hydroxycinnamic Platforms for Bioimaging and Therapeutic Release” (J Med Chem, 2022).
